{"source": "patent US20130129626A1", "about": "“IN VIVO IMAGING AGENTS” (H[…] LIMITED, priority 2006, published 2013)", "key": {"[1]": {"biological_target": "T1, CCR5 (Homo sapiens, UniProt P51681)", "T1 construct": "expressed in transfected cells; host or cells: CHO-K1", "T1 sequence (P51681 whole entry)": "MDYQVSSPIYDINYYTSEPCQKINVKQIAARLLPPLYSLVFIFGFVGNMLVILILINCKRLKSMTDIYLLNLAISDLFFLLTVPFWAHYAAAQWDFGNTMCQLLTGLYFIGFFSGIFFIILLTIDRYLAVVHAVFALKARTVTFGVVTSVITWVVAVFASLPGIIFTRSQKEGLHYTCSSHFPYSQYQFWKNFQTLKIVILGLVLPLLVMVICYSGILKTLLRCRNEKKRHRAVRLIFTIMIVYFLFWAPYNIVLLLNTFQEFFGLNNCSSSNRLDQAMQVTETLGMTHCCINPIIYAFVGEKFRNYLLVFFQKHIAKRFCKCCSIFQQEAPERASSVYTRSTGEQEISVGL", "experiment": "CCR5 binding assay ([125I]-MIP-1β displacement)", "protocol": "CCR5 binding assay was performed under the following conditions, according to a method that was adapted from the literature [Samson et al., J. Biol. Chem., 272, 24934-41 (1997)].\nThus, Compound 8 was incubated for 2 hours at 25° C. in 50 mM HEPES, pH7.4 containing 1 mM CaCl2, 0.5% BSA, 5 mM MgCl2 and 1% DMSO with Human recombinant CHO-K1 cells in the presence of 0.1 nM [^125I]-MIP-1β, where MIP-1β is Macrophage Inflammatory Protein 1β."}, "[2]": {"biological_target": "T2, CCR1 (Homo sapiens, UniProt P32246)", "T2 construct": "expressed in transfected cells; host or cells: CHO-K1", "T2 sequence (P32246 1-355)": "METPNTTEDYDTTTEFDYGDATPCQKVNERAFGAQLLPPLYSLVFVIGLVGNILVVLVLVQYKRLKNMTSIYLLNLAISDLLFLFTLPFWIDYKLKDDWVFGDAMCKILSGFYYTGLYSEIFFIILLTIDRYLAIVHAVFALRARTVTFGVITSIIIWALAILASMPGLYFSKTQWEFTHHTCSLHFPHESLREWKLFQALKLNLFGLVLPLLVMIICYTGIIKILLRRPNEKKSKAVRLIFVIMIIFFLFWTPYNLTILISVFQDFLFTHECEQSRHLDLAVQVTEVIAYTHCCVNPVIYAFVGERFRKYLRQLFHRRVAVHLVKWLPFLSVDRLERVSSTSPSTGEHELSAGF", "experiment": "CCR1 binding assay ([125I]-MIP-1α displacement)", "protocol": "The CCR1 binding assay was performed under the following conditions, according to a method that was adapted from the literature [Ben-Baruch et al., J. Biol. Chem., 270(38), 22123-8 (1995); Pease et al., J. Biol. Chem., 273(32), 19972-6 (1998)].\nThus, Compound 8 was incubated for 3 hours at 25° C. in 50 mM HEPES, pH7.4 containing 1 mM CaCl2, 0.5% BSA, 5 mM MgCl2 and 1% DMSO with Human recombinant CHO-K1 cells in the presence of 0.02 nM [^125I]-MIP-1α. MIP-1α is Macrophage Inflammatory Protein 1α (ligand of CCR1 and CCR5)."}, "[3]": {"biological_target": "T3, CCR2B (Homo sapiens, UniProt P41597)", "T3 construct": "expressed in transfected cells; host or cells: CHO-K1", "T3 sequence (P41597 1-360 isoform P41597-2)": "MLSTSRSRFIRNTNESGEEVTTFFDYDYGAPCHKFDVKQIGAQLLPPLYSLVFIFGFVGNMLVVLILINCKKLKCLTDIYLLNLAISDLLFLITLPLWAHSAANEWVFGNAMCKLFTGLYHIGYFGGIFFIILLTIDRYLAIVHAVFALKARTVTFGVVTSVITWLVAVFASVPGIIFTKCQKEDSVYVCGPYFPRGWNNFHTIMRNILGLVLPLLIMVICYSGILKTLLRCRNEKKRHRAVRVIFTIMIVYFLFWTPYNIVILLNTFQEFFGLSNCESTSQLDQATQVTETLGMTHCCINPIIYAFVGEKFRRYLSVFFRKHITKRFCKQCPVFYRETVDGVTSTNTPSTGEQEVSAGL", "experiment": "CCR2B binding assay ([125I]-MCP-1 displacement)", "protocol": "CCR2B binding assay was performed under the following conditions, according to a method that was adapted from the literature [Gong et al., J. Biol. Chem., 272, 11682-5 (1997); Moore et al., J. Leukoc. Biol., 62, 911-5 (1997)].\nThus, Compound 8 was incubated for 1 hour at 25° C. in 25 mM HEPES, pH7.4 containing 1 mM CaCl2, 0.5% BSA, 5 mM MgCl2, 0.1% NaN3 and 1% DMSO with Human recombinant CHO-K1 cells in the presence of 0.1 nM [^125I]-MCP-1. MCP-1 is monocyte chemoattractant protein (the ligand of CCR2)."}, "[4]": {"experiment": "Parallel Artificial Membrane Permeability Assay (PAMPA)", "assay_type": "in vitro ADME", "conditions": "prediction of blood brain barrier penetration by passive diffusion, high Pe>4.0×10^-06, low Pe<2.0×10^-06 cm/sec", "protocol": "The permeability of the CCR compounds was measured in a Parallel Artificial Membrane Permeability Assay (PAMPA) which gives a prediction of the blood brain barrier penetration by passive diffusion [Di et al, Eur. J. Med. Chem., 38(3), 223-232 (2003)].\nThe commonly accepted classification ranges for this PAMPA assay are as follows: • High predicted passive BBB permeation: Pe>4.0×10^−06 cm/sec. • Low predicted passive BBB permeation: Pe<2.0×10^−06 cm/sec.\nUncertain prediction of BBB permeation: 2.0×10^−06 cm/sec<Pe<4.0×10^−06 cm/sec."}}, "data": [{"compound": "Cc1ccc(N(CCCN2CCC(Cc3ccc(F)cc3)CC2)C(=O)C2CCN(C(=O)CF)CC2)cc1Cl", "note": "[Compound 8]", "values": [{"measurement": "Ki", "setting": "[1]", "result": 0.79, "unit": "nM"}, {"measurement": "selectivity for CCR5 over CCR1 and CCR2B (in words)", "setting": "[1]; compared with CCR1 and CCR2B binding at 10 μM", "result": "selective for CCR5"}, {"measurement": "CCR5 binding (in words)", "setting": "[1]; summary statement of Example 6", "result": "high affinity"}, {"measurement": "inhibition at 10 µM", "setting": "[2]; 10 μM Compound 8, Human recombinant CHO-K1 cells, 0.02 nM [125I]-MIP-1α, 3 hours at 25° C.", "result": 32, "unit": "%"}, {"measurement": "CCR1 binding (in words)", "setting": "[2]; summary statement of Example 6", "result": "does not bind"}, {"measurement": "inhibition of the binding of MCP-1 to CCR2B", "setting": "[3]; 10 μM concentration, Human recombinant CHO-K1 cells, 0.1 nM [125I]-MCP-1, 1 hour at 25° C.", "result": "did not inhibit"}, {"measurement": "CCR2B binding (in words)", "setting": "[3]; summary statement of Example 6", "result": "does not bind"}, {"measurement": "Papp", "setting": "[4]", "result": 6.8, "unit": "×10⁻⁶ cm/s"}]}]}
